Measured values: ChEMBL document CHEMBL6121064, “Recent Developments in 14-3-3 Stabilizers for Regulating Protein-Protein Interactions: An Update” (J Med Chem, 2025)
pIC50: −log10 of the molar value.

Key:
Estrogen receptor = target: T1, Estrogen receptor (Homo sapiens, UniProt P03372); assay: Inhibition of ERalpha (unknown origin)
T1 sequence (P03372 whole entry): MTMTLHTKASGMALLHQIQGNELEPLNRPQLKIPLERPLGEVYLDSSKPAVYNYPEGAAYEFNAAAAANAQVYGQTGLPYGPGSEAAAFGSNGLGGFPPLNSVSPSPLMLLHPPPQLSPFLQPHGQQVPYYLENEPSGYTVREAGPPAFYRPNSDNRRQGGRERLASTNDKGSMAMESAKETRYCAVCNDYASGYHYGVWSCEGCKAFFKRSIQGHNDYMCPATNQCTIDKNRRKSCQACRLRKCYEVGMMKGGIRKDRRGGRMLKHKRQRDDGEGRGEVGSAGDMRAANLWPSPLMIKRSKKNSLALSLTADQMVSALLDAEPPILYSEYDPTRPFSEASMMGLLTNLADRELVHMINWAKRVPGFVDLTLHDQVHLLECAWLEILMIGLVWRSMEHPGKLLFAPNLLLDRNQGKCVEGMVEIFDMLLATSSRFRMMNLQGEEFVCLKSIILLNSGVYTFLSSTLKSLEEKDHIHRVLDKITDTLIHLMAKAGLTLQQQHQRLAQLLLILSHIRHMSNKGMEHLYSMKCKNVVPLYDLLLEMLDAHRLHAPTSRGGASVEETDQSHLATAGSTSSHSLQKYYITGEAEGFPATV

[1] = target: RAF proto-oncogene serine/threonine-protein kinase (Homo sapiens, UniProt P04049); assay: Inhibition of C-RAF (unknown origin)
HL-60 = assay: cells; conditions: Homo sapiens, HL-60, 72 h
Description: Antiproliferative activity against human HL-60 cells assessed as reduction in cell growth incubated for 72 hrs by MTT assay

MIA PaCa-2 = assay: cells; conditions: Homo sapiens, MIA PaCa-2, 48 h
Description: Antiproliferative activity against human MIA PaCa-2 cells assessed as reduction in cell growth measured after 48 hrs by MTT assay

[2] = target: T2, 14-3-3 protein beta/alpha (Homo sapiens, UniProt P31946)
T2 sequence (P31946 whole entry): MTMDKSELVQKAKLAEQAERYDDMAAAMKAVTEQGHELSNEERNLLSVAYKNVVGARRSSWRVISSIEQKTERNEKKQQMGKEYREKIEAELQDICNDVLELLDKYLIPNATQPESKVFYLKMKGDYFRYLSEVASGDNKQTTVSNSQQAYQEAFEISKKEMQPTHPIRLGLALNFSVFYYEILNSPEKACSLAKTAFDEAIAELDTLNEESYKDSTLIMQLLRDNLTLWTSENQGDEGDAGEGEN

[3] = target: T2, 14-3-3 protein beta/alpha; remark: listed apart in the source

Chain of RAF proto-oncogene serine/threonine-protein kinase (P04049 whole entry): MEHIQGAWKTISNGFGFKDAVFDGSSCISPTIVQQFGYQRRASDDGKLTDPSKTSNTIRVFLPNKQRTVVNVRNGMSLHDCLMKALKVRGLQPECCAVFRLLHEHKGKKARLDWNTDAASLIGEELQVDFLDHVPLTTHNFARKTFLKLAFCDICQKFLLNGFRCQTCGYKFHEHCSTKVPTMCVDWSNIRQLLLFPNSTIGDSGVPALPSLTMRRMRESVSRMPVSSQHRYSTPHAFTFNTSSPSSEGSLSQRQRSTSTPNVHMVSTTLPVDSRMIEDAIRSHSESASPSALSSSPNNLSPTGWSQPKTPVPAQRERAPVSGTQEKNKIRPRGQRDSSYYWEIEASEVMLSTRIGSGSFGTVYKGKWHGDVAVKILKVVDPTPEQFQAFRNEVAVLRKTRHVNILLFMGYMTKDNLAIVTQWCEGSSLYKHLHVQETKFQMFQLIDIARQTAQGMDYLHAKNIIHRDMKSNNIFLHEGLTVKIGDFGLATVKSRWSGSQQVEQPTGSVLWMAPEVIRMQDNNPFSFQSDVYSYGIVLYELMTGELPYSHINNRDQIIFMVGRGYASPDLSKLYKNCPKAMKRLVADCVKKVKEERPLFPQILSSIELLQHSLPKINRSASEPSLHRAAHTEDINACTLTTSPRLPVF

Compound	pIC50 (Estrogen receptor)	pIC50 [1]	other results
O=C(C1=C(O)C(=O)N(c2ccc(O)c(C(=O)O)c2)C1c1ccc([N+](=O)[O-])cc1)c1ccccc1 (stereo not drawn)	4.10		
CC(C)CC(NC(=O)[C@H](O)[C@H](N)Cc1ccccc1)C(=O)O (stereo partly drawn)	5.74		
CN(C)CCSSCCC(=O)N1CCC(O)(c2cccc(C(F)(F)F)c2)CC1		4.11	
CN(C)CCSSCCNC(=O)C1CCN(C(=O)C(C)(C)Oc2ccc(Cl)cc2)CC1	4.72	4.09	
CN(C)CCSSCCNC(=O)C1CCCN(C(=O)c2ccc(Oc3ccccc3)cc2)C1 (stereo not drawn)	3.37	3.37	
COc1ccc2cc([C@H](C)C(=O)N3CCC(C(=O)NCCSSCCN(C)C)CC3)ccc2c1		3.61	
COC[C@H]1CC[C@@H]2/C1=C\[C@@]1(C)CCC(C(C)C)=C1C(O[C@@H]1O[C@@H](CNCc3ccccc3)[C@H](O)[C@@H](O)[C@@H]1O)[C@H](O)[C@@H]2C (stereo partly drawn)			pIC50 (HL-60): 6.60
COC[C@H]1CC[C@@H]2/C1=C\[C@@]1(C)CCC(C(C)C)=C1C(O[C@@H]1O[C@H]3COC(C)(C)O[C@@H]3[C@@H](O)[C@@H]1O)[C@H](O)[C@@H]2C (stereo partly drawn)			pIC50 (MIA PaCa-2): 4.74
N=C(N)c1cc(-c2cccc(NC(=O)C3(Oc4ccc(Cl)cc4)CCC(N)CC3)c2)cs1 (stereo not drawn)			pIC50 [2]: 3.82
O=Cc1ccc(-n2ccnc2-c2ccc(F)cc2F)cc1Br			pIC50 [3]: 3.60
NCCCNCCS [WR-1065]	5.55		
